Assay results taken from patent US8895505B2, “Method of treatment of type 2 diabetes” (AdiStem Ltd., priority 2009, dated 2014).
No end group written: not given here.

Experiments:
[1] = tested on: type 2 diabetic patients; assay: TB4-7 trial: randomized, double-blind, placebo-controlled 2-month trial in type 2 diabetic patients; format: in vivo, human; conditions: 10 mg s.c. twice a week for 2 months
Protocol: The inventors have performed a single-center, randomized, double-blind, placebo-controlled 2-month trial of twice a week s.c. injection of 10 mg of TB4-7 (a peptide having the amino acid sequence LKKTETQ (SEQ ID NO:1)) in type 2 diabetic patients inadequately treated with diet/lifestyle or stable doses of common hypoglycemics for at least 3 months. The results from an interim 2 month report of that trial is provided in this example.
Patients with type 2 diabetes for >/=1 year were entered into 2 strata of hemoglobin A(1c) (HbA(1c)) levels: Stratum 1: 8.0% to 9.9%; and Stratum 2: 10.0% to 12.0%.
All subjects began a 1-month single-blind placebo run-in phase, followed by randomization in a 2:1 ratio of active treatment: placebo, to 2 months of double-blind treatment with either TB4-7 or saline placebo. Concurrent oral agents were continued unchanged throughout the study.
The primary outcome was the change in HbA(1c) from randomization; results of each stratum were analyzed independently. […] 14 subjects entered stratum 1 and 12 entered stratum 2.

[2] = tested on: dogs with canine DM; assay: Dog diabetes mellitus trials; format: in vivo; conditions: 10 mg once a week
Protocol: A total of 48 dogs took part in the trials. Dogs where put into two groups of 24: one group was injected with the full 10 mg Thymosin beta 4 protein (TB4) once a week; and the other group was injected with 10 mg TB4-7 once a week for four weeks.
Diagnosis criteria of DM and the pre-requisites for study inclusion were:
(1) clinical signs consistent with canine DM, such as polydipsia, polyuria, polyphagia, and weight loss; (2) persistent and 24-hour fasting hyperglycemia (>200 mg/dL) for more than 2 days; (3) persistent glycosuria for more than 2 days; and (4) insulin supplementation required to maintain normal glucose levels.
Glycosylated hemoglobin and blood glucose levels where measured at before every injection and seven days after the last injection.

[3] = Week 0 (before first injection)
[4] = Week 4 (seven days after last injection)

Row | Substance | adverse events [1] | tolerability [1] | Glucose [2, 3] | HbA1c [2, 3] | Glucose ([2]; Week 1) | HbA1c ([2]; Week 1) | Glucose ([2]; Week 2) | HbA1c ([2]; Week 2) | Glucose ([2]; Week 3) | HbA1c ([2]; Week 3) | Glucose [2, 4] | HbA1c [2, 4]
1 | LKKTETQ [TB4-7, LKKTETQ] | No adverse events | well tolerated |  |  |  |  |  |  |  |  |  | 
2 | Thymosin beta 4 (MSDKPDMAEIEKFDKSKLKKTETQEKNPLPSKETIEQEKQAGES; listed as Homo sapiens) [TB4, the full Thymosin beta 4 protein (TB4)] |  |  | 298 ± 64 mg/dL | 7.7 ± 2.2% | 310 ± 78 mg/dL | 7.8 ± 2.3% | 296 ± 64 mg/dL | 7.7 ± 2.2% | 275 ± 72 mg/dL | 7.2 ± 2.6% | 213 ± 82 mg/dL | 6.1 ± 2.9%
